The OPERA property sets (Mansouri et al. 2018)

With `Nc1cncc(Cl)n1` the logP was 0.95. For `COc1cncc(Cl)n1`, the logP was 1.65. With `Clc1cncc(Cl)n1` the logP was 1.53. In the case of `CN(C)c1cncc(Cl)n1`, the logP is reported as 1.95. `COC(=O)c1cncc(Cl)n1` gave a logP of 0.47. Work on `Fc1cncc(Cl)n1` yielded a logP of 1.16. Compound `CC(=O)Nc1cncc(Cl)n1` has a logP of 1.1. Work on `NC(=O)c1cncc(Cl)n1` yielded a logP of 0.28. For `CCCOc1cncc(Cl)n1`, the logP was 2.71. In the case of `CCOc1cncc(Cl)n1`, the logP is reported as 2.22. Compound `N#Cc1cncc(Cl)n1` has a logP of 0.79. `Cc1cncc(Cl)n1` showed a logP of 1.04.
